From PubChem BioAssay AID2060497 (Molecular Pharmacology Branch, DTP, NCI, 2025)
“And” between values parts separate entries of the source, which are not always exact repeats. Equal entries are not always repeated.

Tested on: 317291-083-R-J1-PDC complex spheroids, viability
Experiment: Anticancer human tumor 317291-083-R-J1-PDC patient-derived soft tissue sarcoma cell line growth inhibition [GQUAD]
Settings: for viability, T/C: stronger effect = lower value
Text: DNA G-quadruplex Stabilizer Agents in Combinations in Complex Spheroids
A high-throughput screen of multi-cell type tumor spheroids was designed to identify active combinations of DNA G-quadruplex stabilizer agents and targeted small molecules. Complex spheroids include a stromal component modeled by human endothelial cells (HUVEC) and fibroblasts modeled by human mesenchymal stem cells (MSCs). The concentration ranges selected for each drug and investigational agent were based upon clinically achievable concentrations if the clinical Cmax of the agent was known.
Compounds. The drugs and investigational agents: pidnarulex (CX-5461; NSC782164), APTO-253 (NSC789042), BRACO-19 (NSC847499), peposertib (NSC802822), ceralasertib (NSC780249), elimusertib (NSC800525), camonsertib (NSC841442), AZD-1390 (NSC803789), olaparib (NSC753686), talazoparib (NSC767125), ART-558 (NSC835418), sotorasib (NSC818433), MRTX-1133 (NSC836407), SN-38 (NSC673596), topotecan (NSC609699), etoposide (NSC141540), doxorubicin (NSC123127), gemcitabine (NSC613327), 5-fluorouracil (NSC19893), paclitaxel (NSC125973), vemurafenib (NSC761431), panobinostat (NSC761190), R-306465 (JNJ-16241199; NSC773264), adavosertib (NSC754352), TP-3654 (NSC805149), carboplatin (NSC241240), KSQ-4279 (NSC840948), and staurosporine (NSC755774) were obtained from the National Cancer Institute (NCI) Developmental Therapeutics Program Chemical Repository (34). The FDA-approved anticancer drug set is available from the NCI Developmental Therapeutics Program. […] The stock solutions were prepared in dimethyl sulfoxide (DMSO, Sigma-Aldrich, St. Louis, MO, cat. D2650) at 800-fold the tested concentration and stored at -70 degrees C prior to their use. All drugs and investigational agents were tested over a range starting from a high concentration at or near the clinical Cmax and decreasing in half-log increments. If the clinical Cmax for an agent had not been determined, the highest concentration tested was 10 microM.
2.3 Cell Culture. All cells were maintained in an incubator at 37 degrees C and 5% CO2 with 95% humidity. The PDC lines were cultured according to standard operating procedures established by the NCI PDMR. All PDCs were thawed and cultured in Matrigel-coated flasks prepared with a working solution of 1X Ham's F-12 nutrient mix, without supplementation (Invitrogen, cat. 11765054), 100 U/mL penicillin-streptomycin (Invitrogen, cat. 15140122), and 2.5% Matrigel (Corning Inc., cat. 354248) for the first three passages. The 857933-349-R-J2-PDC line was cultured in 6C/Colon 1B media, which includes advanced DMEM/F-12 (Thermo Fisher Scientific, cat. 12634028), 10 mM HEPES (Thermo Fisher Scientific, cat. 15630080), 1X GlutaMAX supplement (Thermo Fisher Scientific, cat. 35050061), 0.1 mg/mL primocin (InvivoGen, cat. ant-pm-2), 10% defined fetal bovine serum, heat inactivated (HyClone Laboratories Inc., cat. SH30070.03HI), 50% L-WRN conditioned media (ATCC, cat. CRL-3276), 1.25 mM N-Acetyl-L-cysteine (Sigma-Aldrich, cat. A9165), 10 mM nicotinamide (Sigma-Aldrich, cat. N0636), 1X B-27 supplement (Thermo Fisher Scientific, cat. 17504044), 1X N-2 supplement (Thermo Fisher Scientific, cat. 17502048), 10 microM Y-27632 dihydrochloride (Tocris Bioscience, cat. 1254), and 50 ng/mL human EGF recombinant protein (Thermo Fisher Scientific, cat. PHG0311). The 485176-168-R4-J1-PDC line was cultured in Panc media, which includes all 6C/Colon 1B media components plus 100 ng/mL human FGF-10 (Thermo Fisher Scientific, cat. 100-26), 500 nM SB-431542 (Selleckchem, cat. S1067), and gastrin (Tocris, cat. 3006).
[…]
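Note: spheroids exposed to compounds for one week before readout.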
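Throughout, for viability, T/C: percent viability relative to DMSO vehicle wells taken as 100%.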

Compound	viability, T/C (compound 0.0316 µM)	viability, T/C (compound 0.1 µM)	viability, T/C (compound 0.316 µM)	viability, T/C (compound 1 µM)	viability, T/C (compound 3.16 µM)	viability, T/C (compound 10 µM)	IC50 (curve of compound)	viability, T/C (compound 0.000999 µM)	viability, T/C (compound 0.00316 µM)	viability, T/C (compound 0.00999 µM)	viability, T/C (compound 0.0999 µM)	IC50 (compound alone, run of 02/20/2024) [nM]
C#Cc1c(F)ccc2cc(O)cc(-c3ncc4c(N5CC6CCC(C5)N6)nc(OCC56CCCN5CC(F)C6)nc4c3F)c12 (configuration not stated)	102% and 110% and 104%	121% and 94.4% and 94.7%	106% and 97.1% and 94.4%	117% and 102% and 95.2%	124% and 92.5% and 79.8%	87.1% and 32.5% and 43.6%	> 10000 nM and 7160 nM and 8220 nM					
C=CC(=O)N1CCN(c2nc(=O)n(-c3c(C)ccnc3C(C)C)c3nc(-c4c(O)cccc4F)c(F)cc23)C(C)C1 (configuration not stated)	108% (2×) and 110%	105% and 102% and 99.9%	118% and 108% and 110%	101% (2×) and 102%	99.1% and 101% and 97.7%	69.1% and 68% and 75.9%	> 10000 nM					
C=CCn1c(=O)c2cnc(Nc3ccc(N4CCN(C)CC4)cc3)nc2n1-c1cccc(C(C)(C)O)n1	76.4% and 96.2% and 111%	59.4% and 51.4% and 83.7%	26.6% (2×) and 41.3%	17.6% and 13.5% and 23.8%	8.54% and 7.89% and 17.9%	9.53% and 9.94% and 16.1%	138 nM and 108 nM and 253 nM					
CC(=O)O[C@H]1C(=O)[C@@]2(C)[C@H]([C@H](OC(=O)c3ccccc3)[C@]3(O)C[C@H](OC(=O)[C@H](O)[C@@H](NC(=O)c4ccccc4)c4ccccc4)C(C)=C1C3(C)C)[C@]1(OC(C)=O)CO[C@@H]1C[C@@H]2O	57.3% and 36.6% and 33.9%	20.6% and 16.7% and 10.5%	13.1% and 15.6% and 6.57%	12.8% and 15.3% and 9.02%	12.2% and 9.53% and 10.6%	12.3% and 12.5% and 12.1%	39.7 nM and < 31.6 nM					
CC(C)(O)C1CCC(Nc2ccc3ncc(-c4cccc(C(F)(F)F)c4)n3n2)CC1 (configuration not stated)	116% and 108% and 110%	95.4% and 96.7% and 97.2%	83% and 89.8% and 76.7%	30% and 33.8% and 28.6%	0.43% and 0.52% and 1.03%	0.85% and 0.69% and 1%	633 nM and 711 nM and 588 nM					
CC(C)n1c(=O)n(C)c2cnc3cc(F)c(-c4ccc(OCCCN5CCCCC5)nc4)cc3c21	104% and 95.2% and 133%	94% and 71.9% and 96.8%	103% and 92.6% and 102%	106% and 94.4% and 105%	81.3% and 74.1% and 100%	44.8% and 39.7% and 45.3%	8470 nM and 7090 nM and 9180 nM					
CC1COCCN1c1cc(-c2ccnn2C)c2ccnc(-c3ccn[nH]3)c2n1 (configuration not stated)	93.3% and 80.4% and 110%	40.7% and 25.8% and 39.3%	20.1% and 22% and 14.4%	20.6% and 15.7% and 21.6%	15.3% and 14.9% and 14.8%	12.3% and 12.6% and 11.2%	81.4 nM and 61 nM and 84.2 nM					
CC1COCCN1c1cc(C2(O)CC3CCC(C2)O3)c2cnn(-c3ccn[nH]3)c2n1 (configuration not stated)	57.9% and 71.5% and 44.9%	37.3% and 29.8% and 26.9%	14.3% and 11.5% and 14.8%	20.7% and 20.3% and 15.5%	14.6% and 11.3% and 12.4%	2.47% and 3.18% and 2.04%	46.9 nM and 56.9 nM and < 31.6 nM					
CC1COCCN1c1cc(C2(S(C)(=N)=O)CC2)nc(-c2ccnc3[nH]ccc23)n1 (configuration not stated)	88.1% and 103% and 100%	104% and 90.7% and 106%	91.8% and 90.3% and 101%	50.2% and 61.5% and 87%	23.9% and 23.1% and 24.4%	13.9% and 18.3% and 13.1%	1050 nM and 1400 nM and 1980 nM					
CCCS(=O)(=O)Nc1ccc(F)c(C(=O)c2c[nH]c3ncc(-c4ccc(Cl)cc4)cc23)c1F	104% and 114% and 118%	97.3% and 110% and 95%	102% and 113% and 121%	86.6% and 83.1% and 87%	46.4% and 66% and 62.4%	12.2% and 13.6% and 14.5%	2840 nM and 4300 nM and 4140 nM					
CC[C@@]1(O)C(=O)OCc2c1cc1n(c2=O)Cc2cc3c(CN(C)C)c(O)ccc3nc2-1	70.6% and 71.7% and 80.6%		14% and 20.4% and 10.5%				51.5 nM and 53.9 nM and 59.7 nM	116% and 105% and 101%	84% and 86.8% and 104%	94.2% and 83.8% and 102%	22.3% and 25% and 25.1%	
CCc1c2c(nc3ccc(O)cc13)-c1cc3c(c(=O)n1C2)COC(=O)[C@]3(O)CC	12.7% and 11.9% and 9.88%		4.6% and 5.68% and 4.03%				1.61 nM and 1.72 nM and 1.51 nM	67.6% and 68.7% and 66.8%	24.9% and 26.7% and 19.9%	13% and 18.2% and 10.6%	8.64% and 6.96% and 7.26%	
CN(C)c1ccc(Nc2c3ccc(NC(=O)CCN4CCCC4)cc3nc3cc(NC(=O)CCN4CCCC4)ccc23)cc1		99.5% [middle of 12 runs]				11.4% [middle of 11 runs]						
COc1cc(C2c3cc4c(cc3C(OC3OC5COC(C)OC5C(O)C3O)C3COC(=O)C23)OCO4)cc(OC)c1O (configuration not stated)	94.7% and 99.8% (2×)	96.7% and 94.9% and 84.3%	48.8% and 64% and 53.8%	22.1% and 20.2% and 30.3%	15.9% and 15.7% and 15.8%	12% and 11.2% and 17%	311 nM and 457 nM and 384 nM					
COc1ccc([C@@H](O)c2cc(-c3ncnc4cc(N5CCOCC5)ccc34)c(F)cc2Cl)nn1	95.9% and 104% and 114%	97.8% and 87.1% and 92.8%	103% (2×) and 99.2%	72.4% and 93.8% and 95%	74.5% and 61.3% and 76.2%	42.8% and 34.4% and 49.6%	7570 nM and 5130 nM and > 10000 nM					
COc1cccc2c1C(=O)c1c(O)c3c(c(O)c1C2=O)CC(O)(C(=O)CO)CC3OC1CC(N)C(O)C(C)O1 (configuration not stated)	77.5% and 82.5% and 86.8%	35% and 28.7% and 27.3%	20% and 26.3% and 22.3%	8.85% and 15.2% and 15.3%	3.09% and 0.8% and 0.76%	4.03% and 0.72% and 2.93%	68.4 nM and 71.5 nM and 69.3 nM					
COc1ncnc(C2CC2)c1-c1ncc2cnn(Cc3ccc(-c4nc(C(F)(F)F)cn4C(C)C)cc3)c2n1	103% and 107% and 108%	92.9% and 85.3% and 81.5%	92.4% and 71.4% and 68.1%	74.2% and 64.1% and 68.2%	100% and 63.6% and 68.3%	76.2% and 72.3% and 64.5%	> 10000 nM					
Cc1[nH]c2ccc(F)cc2c1-c1nc2c3cccnc3c3ncccc3c2[nH]1												> 10000
Cc1[nH]c2ccccc2c1CCNCc1ccc(/C=C/C(=O)NO)cc1	62.6% and 80.2% and 99%		0.25% and 0.09% and 0.84%				41.4 nM and 57.9 nM and 65.3 nM	108% and 109% and 114%	92% and 89.5% and 96.1%	106% and 110% and 105%	8.77% and 22.1% and 21.3%	
Cc1cccc(N(C)C(=O)C2C(O)CCN2c2nc(C)cc(C(F)(F)F)c2C#N)c1 (configuration not stated)	98.9% and 109% and 103%	92.7% and 102% and 96.2%	91.3% and 123% and 98.8%	106% and 90.7% and 99.7%	105% and 86.5% and 93.1%	81.7% and 77.5% and 81.6%	> 10000 nM					
Cc1cnc(CNC(=O)c2c(=O)c3ccc(N4CCCN(C)CC4)nc3n3c2sc2ccccc23)cn1	93.8% [middle of 12 runs]	68.8% [middle of 12 runs]		31.6% [middle of 12 runs]								
Cn1ncnc1[C@H]1c2n[nH]c(=O)c3cc(F)cc(c23)N[C@@H]1c1ccc(F)cc1	86.2% and 89.7% and 90.5%		64.2% and 62.6% and 69%				> 316 nM	123% and 104% (2×)	109% and 92.2% and 102%	99.7% and 95.3% and 94.3%	98.2% and 67.3% and 84.9%	
Nc1ccn(C2OC(CO)C(O)C2(F)F)c(=O)n1 (configuration not stated)	55.7% and 53.6% and 61.2%	16.2% and 24.2% and 38%	16.1% and 12.7% and 9.59%	13.7% and 10.9% and 8.17%	10.1% and 14.3% and 9.39%	9.89% and 13.5% and 8.25%	37.3 nM and 36.3 nM and 55.1 nM					
O=C(NO)c1cnc(N2CCN(S(=O)(=O)c3ccc4ccccc4c3)CC2)nc1	109% and 96.9% and 93.2%	62.2% and 72.5% and 96.7%	8.74% and 8.1% and 24.6%	0.24% and 0.48% and 0.9%	0.11% and 0.05% and 0.04%	0.29% and 1.01% and 0.08%	130 nM and 149 nM and 209 nM					
O=C(c1cc(Cc2n[nH]c(=O)c3ccccc23)ccc1F)N1CCN(C(=O)C2CC2)CC1	111% and 115% and 109%	96.5% and 83.9% and 97.3%	120% and 96.5% and 93.9%	88.7% and 107% and 99.4%	87.6% and 84.9% and 93.7%	71% and 58.2% and 59.2%	> 10000 nM					
O=c1[nH]cc(F)c(=O)[nH]1	102% and 111% and 94.4%	112% and 101% and 100%	95.9% and 101% and 111%	59.7% and 96.8% and 66.8%	35% and 34% and 49.6%	36.3% and 23.9% and 38.4%	1600 nM and 2360 nM and 2340 nM					
